Key:
[1] = molecular target: Cannabinoid receptor 1 (Homo sapiens, UniProt P21554); format: cell membranes, Chem-1, Membrane; settings: chem-1; further: in other assays of this panel Not Active means under 50% inhibition at 10 µM
[2] = molecular target: T1, Cytochrome P450 2A6 (Homo sapiens, UniProt P11509); settings: bti-tn-5b1-4; further: in other assays of this panel Not Active means under 50% inhibition at 10 µM
T1 sequence (P11509 whole entry): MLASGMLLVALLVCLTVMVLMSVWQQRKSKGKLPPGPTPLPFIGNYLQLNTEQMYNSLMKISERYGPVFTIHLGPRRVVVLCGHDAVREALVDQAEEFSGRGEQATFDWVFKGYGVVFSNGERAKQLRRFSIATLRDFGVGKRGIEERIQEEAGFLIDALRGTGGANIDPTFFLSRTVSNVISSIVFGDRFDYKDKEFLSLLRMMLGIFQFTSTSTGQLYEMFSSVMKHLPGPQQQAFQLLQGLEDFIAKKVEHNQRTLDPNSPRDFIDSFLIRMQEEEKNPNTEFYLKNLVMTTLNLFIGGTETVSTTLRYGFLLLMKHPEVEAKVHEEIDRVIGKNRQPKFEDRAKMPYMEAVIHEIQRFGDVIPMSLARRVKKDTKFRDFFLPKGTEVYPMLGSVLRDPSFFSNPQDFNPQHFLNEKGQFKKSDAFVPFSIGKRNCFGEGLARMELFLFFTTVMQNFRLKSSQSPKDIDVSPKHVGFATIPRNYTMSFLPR

[3] = DRUGMATRIX: Glutamate, NMDA, Agonism radioligand binding (ligand: [3H] CGP-39653); format: cell membranes, Rattus norvegicus, Wistar, Cerebral cortex, Membrane; settings: Not Active = under 50% inhibition at 10 µM
[4] = molecular target: T2, Polyunsaturated fatty acid lipoxygenase ALOX15 (Oryctolagus cuniculus, UniProt P12530); assay: biochemical; format: tissue-based, Reticulocytes;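 further: inhibition of 15-lipoxygenase enzyme activity measured with linoleic acid as the substrate; in other assays of this panel Not Active means under 50% inhibition at 10 µM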
T2 sequence (P12530 whole entry): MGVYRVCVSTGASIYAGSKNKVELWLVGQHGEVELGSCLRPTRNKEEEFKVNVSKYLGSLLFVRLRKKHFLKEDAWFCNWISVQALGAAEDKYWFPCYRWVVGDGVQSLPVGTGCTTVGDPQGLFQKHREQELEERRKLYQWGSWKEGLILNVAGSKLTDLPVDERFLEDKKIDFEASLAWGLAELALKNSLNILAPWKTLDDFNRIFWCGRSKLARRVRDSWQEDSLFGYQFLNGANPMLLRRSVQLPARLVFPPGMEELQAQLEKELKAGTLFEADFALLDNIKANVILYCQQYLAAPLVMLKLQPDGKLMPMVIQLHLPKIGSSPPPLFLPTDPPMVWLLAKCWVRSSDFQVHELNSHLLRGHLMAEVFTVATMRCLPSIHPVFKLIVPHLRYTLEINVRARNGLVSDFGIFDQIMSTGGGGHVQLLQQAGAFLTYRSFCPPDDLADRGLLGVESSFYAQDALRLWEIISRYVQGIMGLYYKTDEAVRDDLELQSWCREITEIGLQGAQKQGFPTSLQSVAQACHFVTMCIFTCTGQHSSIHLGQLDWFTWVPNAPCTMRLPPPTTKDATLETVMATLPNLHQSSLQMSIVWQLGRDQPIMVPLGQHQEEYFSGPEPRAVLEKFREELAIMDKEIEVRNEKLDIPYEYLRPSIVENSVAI

[5] = DRUGMATRIX: Purinergic P2X radioligand binding (ligand: [3H] alpha, beta-Methylene-ATP); format: cell membranes, Oryctolagus cuniculus, New Zealand albino, Urinary bladder, Membrane; settings: Not Active = under 50% inhibition at 10 µM
[6] = molecular target: Kappa-type opioid receptor (Homo sapiens, UniProt P41145); assay: DRUGMATRIX: Opiate kappa (OP2, KOP) radioligand binding (ligand: [3H] Diprenorphine); format: cell membranes, HEK293, Membrane; settings: Not Active = under 50% inhibition at 10 µM
Chain of Kappa-type opioid receptor (P41145 whole entry): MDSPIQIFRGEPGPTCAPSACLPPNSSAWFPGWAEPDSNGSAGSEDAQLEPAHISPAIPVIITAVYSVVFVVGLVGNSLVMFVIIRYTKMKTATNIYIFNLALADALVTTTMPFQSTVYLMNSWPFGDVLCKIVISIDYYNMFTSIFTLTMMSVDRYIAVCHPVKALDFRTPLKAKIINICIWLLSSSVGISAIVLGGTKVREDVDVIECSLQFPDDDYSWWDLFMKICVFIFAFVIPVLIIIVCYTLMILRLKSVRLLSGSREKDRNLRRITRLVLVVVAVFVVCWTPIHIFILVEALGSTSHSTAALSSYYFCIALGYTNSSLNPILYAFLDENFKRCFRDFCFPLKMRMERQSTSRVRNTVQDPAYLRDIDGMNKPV

[7] = molecular target: T3, 5-hydroxytryptamine receptor 1A (Rattus norvegicus, UniProt P19327); format: cell membranes, CHO-K1, Membrane; further: in other assays of this panel Not Active means under 50% inhibition at 10 µM
T3 sequence (P19327 whole entry): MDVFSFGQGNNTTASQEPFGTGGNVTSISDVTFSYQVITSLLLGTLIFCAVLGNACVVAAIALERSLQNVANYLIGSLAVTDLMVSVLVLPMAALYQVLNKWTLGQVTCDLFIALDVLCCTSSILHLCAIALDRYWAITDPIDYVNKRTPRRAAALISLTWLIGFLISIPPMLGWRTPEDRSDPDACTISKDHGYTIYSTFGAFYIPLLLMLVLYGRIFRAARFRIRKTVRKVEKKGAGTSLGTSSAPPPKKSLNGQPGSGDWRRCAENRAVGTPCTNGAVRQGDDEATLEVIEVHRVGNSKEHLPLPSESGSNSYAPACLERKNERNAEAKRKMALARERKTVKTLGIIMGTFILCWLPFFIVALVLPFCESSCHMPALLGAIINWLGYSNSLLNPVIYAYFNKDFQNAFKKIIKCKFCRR

Chain of Cannabinoid receptor 1 (P21554 whole entry): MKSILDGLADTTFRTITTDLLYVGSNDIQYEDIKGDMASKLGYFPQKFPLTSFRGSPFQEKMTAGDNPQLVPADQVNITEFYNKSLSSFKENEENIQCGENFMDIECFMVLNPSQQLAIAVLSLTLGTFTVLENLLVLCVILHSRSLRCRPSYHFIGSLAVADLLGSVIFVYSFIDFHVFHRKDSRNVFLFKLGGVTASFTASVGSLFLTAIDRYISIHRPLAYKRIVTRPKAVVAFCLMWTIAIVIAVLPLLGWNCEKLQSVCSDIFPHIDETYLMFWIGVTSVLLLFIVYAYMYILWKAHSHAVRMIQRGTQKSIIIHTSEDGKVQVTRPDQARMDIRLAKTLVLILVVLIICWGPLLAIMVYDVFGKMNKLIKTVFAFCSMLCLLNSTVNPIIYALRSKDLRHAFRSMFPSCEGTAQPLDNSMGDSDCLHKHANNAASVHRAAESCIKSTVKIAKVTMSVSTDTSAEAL

Row | Compound | IC50 [1] | IC50 [2] | Ki [2] | IC50 [3] | Ki [3] | IC50 ([4]; reticulocytes) | IC50 [5] | Ki [5] | IC50 ([6]; hek293) | IC50 ([7]; cho-k1) | Ki [1] | Ki ([4]; reticulocytes) | Ki ([7]; cho-k1) | Ki [6] [µM] | IC50 ([6]; read-out: IC50) [µM] | IC50 ([7]; read-out: IC50) [µM] | Ki ([7]; read-out: Ki) [µM] | IC50 ([4]; read-out: IC50) [µM]
1 | COc1ccc(Cl)cc1C(=O)NCCc1ccc(S(=O)(=O)NC(=O)NC2CCCCC2)cc1 [GLYBURIDE] | Not Active | Not Active | Not Active | Not Active | Not Active | Not Active | Not Active | Not Active | Not Active | Not Active | – | – | – | – | – | – | – | –
2 | CHROMIC CHLORIDE | Not Active | Not Active | Not Active | Not Active | Not Active | Not Active | Not Active | Not Active | – | Not Active | Not Active | Not Active | Not Active | – | – | – | – | –
3 | CCN1C[C@]2(COC)[C@H](O)C[C@H](OC)[C@@]34[C@@H]5C[C@@]6(O)[C@H](OC(=O)c7ccccc7)[C@@H]5[C@@](OC(C)=O)([C@@H]([C@H](OC)[C@H]23)[C@@H]14)[C@@H](O)[C@@H]6OC [ACONITINE] | Not Active | Not Active | Not Active | Not Active | Not Active | Not Active | Not Active | Not Active | – | Not Active | – | – | – | – | – | – | – | –
4 | O=C(O)CCc1nc(-c2ccccc2)c(-c2ccccc2)o1 [OXAPROZIN] | Not Active | Not Active | Not Active | Not Active | Not Active | Not Active | Not Active | Not Active | Not Active | Not Active | – | – | – | – | – | – | – | –
5 | Cc1ccnc2c1NC(=O)c1cccnc1N2C1CC1 [NEVIRAPINE] | Not Active | Not Active | Not Active | Not Active | Not Active | Not Active | Not Active | Not Active | Not Active | Not Active | – | – | – | – | – | – | – | –
6 | Clc1cc(Cl)c(OCC#CI)cc1Cl [HALOPROGIN] | Not Active | Not Active | Not Active | Not Active | Not Active | Not Active | Not Active | Not Active | – | Not Active | – | – | – | 0.459 | 1.15 | – | – | –
7 | COc1ccccc1OCCNCC(O)COc1cccc2[nH]c3ccccc3c12 (stereo not drawn) [CARVEDILOL] | Not Active | Not Active | Not Active | Not Active | Not Active | Not Active | Not Active | Not Active | Not Active | – | – | – | – | – | – | 0.00584 | 0.00334 | –
8 | CCN1CCN(c2cc3c(cc2F)c(=O)c(C(=O)O)cn3C2CC2)CC1 [ENROFLOXACIN] | Not Active | Not Active | Not Active | Not Active | Not Active | Not Active | Not Active | Not Active | Not Active | Not Active | – | – | – | – | – | – | – | –
9 | POVIDONE | Not Active | Not Active | Not Active | Not Active | Not Active | Not Active | Not Active | Not Active | – | Not Active | Not Active | Not Active | Not Active | – | – | – | – | –
10 | C=C(Cl)Cl [1,1-DICHLOROETHENE] | Not Active | Not Active | Not Active | Not Active | Not Active | Not Active | Not Active | Not Active | – | Not Active | – | – | – | – | – | – | – | –
11 | CC(=O)[C@]1(O)Cc2c(O)c3c(c(O)c2[C@@H](O[C@H]2C[C@H](N)[C@H](O)[C@H](C)O2)C1)C(=O)c1ccccc1C3=O [IDARUBICIN] | Not Active | Not Active | Not Active | Not Active | Not Active | Not Active | Not Active | Not Active | Not Active | Not Active | – | – | – | – | – | – | – | –
12 | NC(=O)CN1CCCC1=O | Not Active | Not Active | Not Active | Not Active | Not Active | Not Active | Not Active | Not Active | Not Active | Not Active | – | – | – | – | – | – | – | –
13 | CO[C@H]1O[C@@H]2O[C@@]3(C)CC[C@H]4[C@H](C)CC[C@@H]([C@H]1C)[C@@]24OO3 | Not Active | Not Active | Not Active | Not Active | Not Active | Not Active | Not Active | Not Active | Not Active | Not Active | – | – | – | – | – | – | – | –
14 | COPPER(II) OXIDE | Not Active | Not Active | Not Active | Not Active | Not Active | Not Active | Not Active | Not Active | – | Not Active | Not Active | Not Active | Not Active | – | – | – | – | –
15 | Nc1ccc(Cc2ccc(N)cc2)cc1 | Not Active | Not Active | Not Active | Not Active | Not Active | Not Active | Not Active | Not Active | – | Not Active | – | – | – | – | – | – | – | –
16 | O=C(O)CNCP(=O)(O)O [GLYPHOSATE] | Not Active | – | – | Not Active | Not Active | Not Active | Not Active | Not Active | – | Not Active | – | – | – | – | – | – | – | –
17 | CARBOXYMETHYLCELLULOSE | Not Active | Not Active | Not Active | Not Active | Not Active | Not Active | Not Active | Not Active | – | Not Active | Not Active | Not Active | Not Active | – | – | – | – | –
18 | CNC[C@H](O)c1ccc(O)c(O)c1 [EPINEPHRINE] | Not Active | Not Active | Not Active | – | – | – | Not Active | Not Active | Not Active | Not Active | – | – | – | – | – | – | – | 3.28
19 | C=CCN1CC[C@]23c4c5ccc(O)c4O[C@H]2/C(=N/N=C2\CC[C@@]4(O)[C@H]6Cc7ccc(O)c8c7[C@@]4(CCN6CC=C)[C@H]2O8)CC[C@@]3(O)[C@H]1C5 [NALOXONAZINE] | Not Active | Not Active | Not Active | Not Active | Not Active | Not Active | Not Active | Not Active | – | Not Active | – | – | – | – | – | – | – | –
20 | C=CCO [ALLYL ALCOHOL] | Not Active | Not Active | Not Active | Not Active | Not Active | Not Active | Not Active | Not Active | – | Not Active | – | – | – | – | – | – | – | –
21 | COc1cc([C@@H]2c3cc4c(cc3[C@H](O)[C@H]3COC(=O)[C@H]23)OCO4)cc(OC)c1OC [PODOFILOX] | Not Active | Not Active | Not Active | Not Active | Not Active | Not Active | Not Active | Not Active | – | Not Active | – | – | – | – | – | – | – | –
22 | ClC1=C(Cl)[C@]2(Cl)[C@@H]3[C@@H]4C[C@@H]([C@H]5O[C@@H]45)[C@@H]3[C@@]1(Cl)C2(Cl)Cl [DIELDRIN] | Not Active | Not Active | Not Active | Not Active | Not Active | Not Active | Not Active | Not Active | – | Not Active | – | – | – | – | – | – | – | –
